Experimental data reported in PMC5537869, “Role of Zucchini and Its Distinctive Components in the Modulation of Degenerative Processes: Genotoxicity, Anti-Genotoxicity, Cytotoxicity and Apoptotic Effects” (Nutrients, 2017).
Several values for one entry are separate records, joined by “and”; a condition that tells them apart may be missing. Identical values can stand only once.

How the values were obtained:
[1] = system: Drosophila melanogaster transheterozygous larvae; assay: Genotoxicity (single treatment), Drosophila wing spot test (SMART); assay type: in vivo; set-up: key to Mann-Whitney Test: n.s.: non-significant; conditions: for Mann-Whitney Test: vs negative control
Procedure: (§1) The principles and basic procedures for the Drosophila wing spot test have been described by Graf et al., and in previous works of our group. Two strains of flies carrying wing genetic markers on the left arm of chromosome 3: multiple wing […] used. The transheterozygous larvae were obtained by crossing […] (Third Multiple 3), Bd^S(Beaded […]) virgin females. Hybrid eggs derived from crossing optimally fertile flies were collected over an 8 h period. […] Concurrent negative controls with the solvent alone (water) and positive controls with hydrogen peroxide (120 mM) were also run. Anti-genotoxicity tests were carried out by mixing the mutagen (hydrogen peroxide, 120 mM) with the compounds solution. After emergence, adult flies were collected from the treatment vials and stored in 70% ethanol. The wings of the flies were removed under a stereomicroscope using a pair of entomological tweezers, similar number of males and females-wings were mounted in Faure's solution on microscope slides and inspected, under 400× magnification, for the presence of clones of cells. The mutant clones were classified into three types: […] The appearance of twin spots indicated the recombinogenic activity of the chemotherapeutic agent (Figure 1). The frequencies of spots per fly of treated series were compared with its corresponding negative control series (water) to analyze Somatic Mutation and Recombination Test (SMART) data. For maximum power, statistical analyses were done exclusively for the total number of spots recovered. The non-parametric U test of Mann, Whitney and Wilcoxon was used to avoid weak positive and inconclusive results on SMART and to achieve a well-defined statistical diagnosis whether a given treatment should be regarded as genotoxic or not. The inhibition percentages (IP) were calculated using the total spots per wing with the following formula [16, 36]: IP = ((Genotoxine alone - Genotoxine plus active compound)/Genotoxine alone) × 100

[2] = system: HL60 cells; assay: Annexin V-PI apoptosis assay (flow cytometry); assay type: cell-based, human; conditions: HL60, 5 h, highest concentrations
Procedure: (§2) The HL60 tumoral cell line was used with the aim of analyse the apoptotic induction. HL60 cells (1.5 × 10^6 cells) were treated with the same concentrations of the different compounds for 5 h. A non-treated cells control was included for each experiment. For DNA fragmentation, treated cells were collected, were centrifuged at 4000 rpm for 5 min and washed with PBS. The DNA was extracted using a commercial kit (MBL 243, Dominion mbl, Córdoba, Spain) and the resulting total DNA was treated with RNAse in order to eliminate false positive for 30 min at 37 °C. Samples of 1.5 μg of DNA were mixed with loading buffer and loaded onto a pre-solidified 2% agarose gel containing ethidium bromide. The agarose gels were run at 50 V for 90 min in TBE (Tris/Borate/EDTA) buffer and then observed and photographed under UV light. For Annexin V-PI test, Annexin V Apoptosis Detection Kit (Canvax Biotech S.L., Cordoba, Spain) was used. Briefly, cells were resuspended in 100 μL of Binding buffer solution 1× and subsequently, 5 μL AnnexinV-FITC (Fluorescein isothiocyanate) and 10 μL propidium iodide were added, and samples were incubated for 10 min at room temperature in darkness, and flow cytometry (Beckman Coulter Inc., Brea, CA, USA) was then used to analyze the rate of apoptosis.

[3] = system: HL60 cells; conditions: cited from earlier work
[4] = system: Drosophila melanogaster transheterozygous larvae; assay: Anti-genotoxicity (combined treatment with hydrogen peroxide 120 mM), Drosophila wing spot test (SMART); assay type: in vivo; set-up: key to Mann-Whitney Test: n.s.: non-significant; conditions: for Large Spots (>2 Cells) m = 5 / Small Spots (1–2 Cells) m = 2 / Total Spots m = 2 / Twin Spots m = 5 / Mann-Whitney Test: combined treatment with H2O2 120 mM; for Mann-Whitney Test: vs negative control
Procedure: as §1

[5] = system: Drosophila melanogaster; set-up: method as in PMID 19937581; conditions: SMART, 1, 2 and 4 mg/mL; cited from earlier work
[6] = system: HL60 cells; assay: Nucleosomal DNA fragmentation assay; assay type: cell-based, human; conditions: HL60, 5 h, same concentrations as in the cytotoxicity assay, agarose gel
Procedure: as §2, with “HL60 cells (1.5 × 10^6 cells) were treated with the same concentrations of the different compounds for 5 h.” left out, “The DNA was extracted using a commercial kit (MBL 243, Dominion mbl, Córdoba, Spain) and the resulting total DNA was treated with RNAse in order to eliminate false positive for 30 min at 37 °C. Samples of 1.5 μg of DNA were mixed with loading buffer and loaded onto a pre-solidified 2% agarose gel containing ethidium bromide.” left out, “([…]” for “(Canvax”

[7] = system: HL60 cells; assay: Cytotoxicity assay, trypan blue exclusion; assay type: cell-based, human; conditions: for cytotoxic effect (tumoral viability): HL60, 72 h, trypan blue exclusion, at the tested concentrations
Procedure: Therefore, all the cells that exclude the dye are viable. Non-viable cells stained purple-violet, whereas viable ones remained unstained. Trypan blue was added to cell cultures at a 1:1 ratio, and 20 μL of cell suspension was loaded into a Neubauer chamber. The cells were counted under an inverted microscope at 100× magnification. […] Curves are expressed as survival percentage with respect to controls growing at 72 h. All data represent the average of at least three independent experiments.

CC1=C(/C=C/C(C)=C/C=C/C(C)=C/C=C/C=C(C)/C=C/C=C(C)/C=C/C2=C(C)CCCC2(C)C)C(C)(C)CCC1 [β-carotene]
Large Spots (>2 Cells) m = 5 ([1]; single treatment, 0.0003 μM): 0.00 (0) clones per wing
Small Spots (1–2 Cells) m = 2 ([1]; single treatment, 0.0003 μM): 0.08 (3) clones per wing
Total Spots m = 2 ([1]; single treatment, 0.0003 μM): 0.08 (3) clones per wing
Twin Spots m = 5 ([1]; single treatment, 0.0003 μM): 0.00 (0) clones per wing
Mann-Whitney Test ([1]; single treatment, 0.0003 μM): n.s.
Large Spots (>2 Cells) m = 5 ([1]; single treatment, 0.0689 μM): 0.03 (1) clones per wing
Small Spots (1–2 Cells) m = 2 ([1]; single treatment, 0.0689 μM): 0.03 (1) clones per wing
Total Spots m = 2 ([1]; single treatment, 0.0689 μM): 0.05 (2) clones per wing
Twin Spots m = 5 ([1]; single treatment, 0.0689 μM): 0.00 (0) clones per wing
Mann-Whitney Test ([1]; single treatment, 0.0689 μM): n.s.
apoptosis by Annexin V/PI versus negative control [2]: induced apoptosis
ID50 [3]: 27 µM
inhibition at 0.0003 µM ([4]; Drosophila melanogaster, ip, 0.0003 μM, against H2O2 120 mM, read-out: inhibition percentage (IP) of genotoxicity): 100%
Large Spots (>2 Cells) m = 5 ([4]; 0.0003 μM): 0.00 (0) clones per wing
Small Spots (1–2 Cells) m = 2 ([4]; 0.0003 μM): 0.00 (0) clones per wing
Total Spots m = 2 ([4]; 0.0003 μM): 0.00 (0) clones per wing
Twin Spots m = 5 ([4]; 0.0003 μM): 0.00 (0) clones per wing
Mann-Whitney Test ([4]; 0.0003 μM): n.s.
Large Spots (>2 Cells) m = 5 ([4]; 0.0689 μM): 0.03 (1) clones per wing
Small Spots (1–2 Cells) m = 2 ([4]; 0.0689 μM): 0.08 (3) clones per wing
Total Spots m = 2 ([4]; 0.0689 μM): 0.11 (4) clones per wing
Twin Spots m = 5 ([4]; 0.0689 μM): 0.00 (0) clones per wing
Mann-Whitney Test ([4]; 0.0689 μM): n.s.
detoxification of the mutation induced by doxorubicin [5]: up to 95%
internucleosomal DNA fragmentation ladder pattern [6]: did not show any internucleosomal fragmentation ladder pattern

O=C1OC(C(O)CO)C(=O)C1=O (stereo not drawn) [DHA, dehydroascorbic acid]
Large Spots (>2 Cells) m = 5 ([1]; single treatment, 0.003 mM): 0.03 (1) clones per wing
Small Spots (1–2 Cells) m = 2 ([1]; single treatment, 0.003 mM): 0.10 (4) clones per wing
Total Spots m = 2 ([1]; single treatment, 0.003 mM): 0.13 (5) clones per wing
Twin Spots m = 5 ([1]; single treatment, 0.003 mM): 0.00 (0) clones per wing
Mann-Whitney Test ([1]; single treatment, 0.003 mM): n.s.
Large Spots (>2 Cells) m = 5 ([1]; single treatment, 0.107 mM): 0.03 (1) clones per wing
Small Spots (1–2 Cells) m = 2 ([1]; single treatment, 0.107 mM): 0.15 (6) clones per wing
Total Spots m = 2 ([1]; single treatment, 0.107 mM): 0.18 (7) clones per wing
Twin Spots m = 5 ([1]; single treatment, 0.107 mM): 0.00 (0) clones per wing
Mann-Whitney Test ([1]; single treatment, 0.107 mM): n.s.
Total Spots m = 2 ([1]; single treatment, 0.107 mM, listed as dehydroascorbic acid): 0.18 clones per wing
Large Spots (>2 Cells) m = 5 ([4]; 0.003 mM): 0.00 (0) clones per wing
Small Spots (1–2 Cells) m = 2 ([4]; 0.003 mM): 0.08 (3) clones per wing
Total Spots m = 2 ([4]; 0.003 mM): 0.08 (3) clones per wing
Twin Spots m = 5 ([4]; 0.003 mM): 0.00 (0) clones per wing
Mann-Whitney Test ([4]; 0.003 mM): n.s.
Large Spots (>2 Cells) m = 5 ([4]; 0.107 mM): 0.03 (1) clones per wing
Small Spots (1–2 Cells) m = 2 ([4]; 0.107 mM): 0.10 (4) clones per wing
Total Spots m = 2 ([4]; 0.107 mM): 0.13 (5) clones per wing
Twin Spots m = 5 ([4]; 0.107 mM): 0.00 (0) clones per wing
Mann-Whitney Test ([4]; 0.107 mM): n.s.
cytotoxicity ([7]; HL60, 0.7 mM): did not show cytotoxicity
cytotoxic effect (tumoral viability) [7]: slight cytotoxic activities
internucleosomal DNA fragmentation ladder pattern [6]: did not show any internucleosomal fragmentation ladder pattern

OO [H2O2, hydrogen peroxide, reference compound]
Large Spots (>2 Cells) m = 5 ([1]; positive control alone, 120 mM): 0.13 (5) clones per wing
Small Spots (1–2 Cells) m = 2 ([1]; positive control alone, 120 mM): 0.38 (15) clones per wing
Total Spots m = 2 ([1]; positive control alone, 120 mM): 0.52 clones per wing and 0.52 (21) clones per wing
Twin Spots m = 5 ([1]; positive control alone, 120 mM): 0.03 (1) clones per wing
Mann-Whitney Test ([1]; positive control alone, 120 mM): * (*: significant (p ≤ 0.05))

CC1=C[C@H](O)CC(C)(C)[C@H]1/C=C/C(C)=C/C=C/C(C)=C/C=C/C=C(C)/C=C/C=C(C)/C=C/C1=C(C)C[C@@H](O)CC1(C)C [Lutein, lutein]
Large Spots (>2 Cells) m = 5 ([1]; single treatment, 0.039 μM): 0.08 (3) clones per wing
Small Spots (1–2 Cells) m = 2 ([1]; single treatment, 0.039 μM): 0.15 (6) clones per wing
Total Spots m = 2 ([1]; single treatment, 0.039 μM): 0.23 (9) clones per wing
Twin Spots m = 5 ([1]; single treatment, 0.039 μM): 0.00 (0) clones per wing
Mann-Whitney Test ([1]; single treatment, 0.039 μM): n.s.
Large Spots (>2 Cells) m = 5 ([1]; single treatment, 0.615 μM): 0.08 (3) clones per wing
Small Spots (1–2 Cells) m = 2 ([1]; single treatment, 0.615 μM): 0.33 (13) clones per wing
Total Spots m = 2 ([1]; single treatment, 0.615 μM): 0.45 (18) clones per wing
Twin Spots m = 5 ([1]; single treatment, 0.615 μM): 0.05 (2) clones per wing
Mann-Whitney Test ([1]; single treatment, 0.615 μM): n.s.
Total Spots m = 2 ([1]; single treatment, 0.615 μM, listed as lutein): 0.45 clones per wing
Large Spots (>2 Cells) m = 5 ([4]; 0.039 μM): 0.06 (2) clones per wing
Small Spots (1–2 Cells) m = 2 ([4]; 0.039 μM): 0.06 (2) clones per wing
Total Spots m = 2 ([4]; 0.039 μM): 0.13 (4) clones per wing
Twin Spots m = 5 ([4]; 0.039 μM): 0.00 (0) clones per wing
Mann-Whitney Test ([4]; 0.039 μM): n.s.
Large Spots (>2 Cells) m = 5 ([4]; 0.615 μM): 0.16 (5) clones per wing
Small Spots (1–2 Cells) m = 2 ([4]; 0.615 μM): 0.25 (8) clones per wing
Total Spots m = 2 ([4]; 0.615 μM): 0.47 (15) clones per wing
Twin Spots m = 5 ([4]; 0.615 μM): 0.06 (2) clones per wing
Mann-Whitney Test ([4]; 0.615 μM): * (*: significant (p ≤ 0.05))
Total Spots m = 2 ([4]; 0.615 μM, listed as lutein): 0.47 clones per wing
cytotoxic effect (tumoral viability) [7]: did not observe any cytotoxic effect
internucleosomal DNA fragmentation ladder pattern [6]: did not show any internucleosomal fragmentation ladder pattern
